What follows are compounds tested against human TRPM8 (Homo sapiens (Human), UniProt Q7Z2W7) (assay: TRPM8 inhibition assay (menthol-induced calcium influx, FDSS)). Details: HEK293 cells stably expressing human TRPM8; 100 μM menthol; Fura-2AM Ca2+ signal; read-out: TRPM8 Blocking Test (IC50).
Format: cell-based
Experimental: The functional activity of compounds was determined by measuring changes in intracellular calcium concentration using a Ca^2+ sensitive fluorescent dye. The changes in fluorescent signal were monitored by the cell imaging technology by Hamamatsu Photonics's Functional Drug Screening System (FDSS). […] HEK293 cells stably expressing human TRPM8 were grown in flasks. On assay day, the culture medium was removed, and cells were washed with phosphate-buffered saline (PBS) and harvested with PBS containing 2 mM ethylenediaminetetraacetic acid, disodium salt (EDTA, 2Na). […] Subsequently, suspended 20,000 to 50,000 cells per well were incubated with test compound (at varying concentrations) in each well for 20 min at 37° C. Changes in intracellular Ca^2+ evoked by 100 μM menthol were measured for 2 min using FDSS. IC50 vales were determined from four-point concentration-response studies. Curves were generated using the average of quadruplicate wells for each data point.

Chain of human TRPM8 (Q7Z2W7 whole entry): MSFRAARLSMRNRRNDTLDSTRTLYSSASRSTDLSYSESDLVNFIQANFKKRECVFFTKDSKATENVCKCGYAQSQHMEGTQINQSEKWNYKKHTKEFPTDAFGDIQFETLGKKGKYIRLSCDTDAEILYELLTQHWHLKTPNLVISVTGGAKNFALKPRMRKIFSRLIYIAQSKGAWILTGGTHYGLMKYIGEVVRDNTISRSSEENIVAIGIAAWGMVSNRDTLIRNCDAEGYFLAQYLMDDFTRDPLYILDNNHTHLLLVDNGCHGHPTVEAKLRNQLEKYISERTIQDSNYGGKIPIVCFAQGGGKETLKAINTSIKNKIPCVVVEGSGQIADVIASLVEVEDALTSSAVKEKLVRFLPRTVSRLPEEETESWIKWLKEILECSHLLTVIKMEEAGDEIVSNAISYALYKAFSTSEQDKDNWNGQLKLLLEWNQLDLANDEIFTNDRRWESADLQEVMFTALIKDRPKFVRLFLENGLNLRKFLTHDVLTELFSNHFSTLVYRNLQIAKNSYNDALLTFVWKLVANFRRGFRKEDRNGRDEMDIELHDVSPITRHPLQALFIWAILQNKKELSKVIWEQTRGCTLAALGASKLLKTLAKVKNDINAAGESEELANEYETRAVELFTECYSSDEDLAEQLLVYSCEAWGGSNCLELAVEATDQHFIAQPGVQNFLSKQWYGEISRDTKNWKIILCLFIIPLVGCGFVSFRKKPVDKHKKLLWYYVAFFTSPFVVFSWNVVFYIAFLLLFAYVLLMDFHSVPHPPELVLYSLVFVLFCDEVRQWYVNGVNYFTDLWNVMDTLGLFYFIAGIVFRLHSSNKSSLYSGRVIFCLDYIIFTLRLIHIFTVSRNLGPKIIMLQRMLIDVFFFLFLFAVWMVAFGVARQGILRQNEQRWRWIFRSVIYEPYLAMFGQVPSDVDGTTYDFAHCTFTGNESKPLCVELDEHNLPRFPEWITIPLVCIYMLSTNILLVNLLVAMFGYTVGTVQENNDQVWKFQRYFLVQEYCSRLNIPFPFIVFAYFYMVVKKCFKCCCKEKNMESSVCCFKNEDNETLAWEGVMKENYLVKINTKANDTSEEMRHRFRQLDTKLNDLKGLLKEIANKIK

IC50	SMILES
11 nM	CCCc1nc(N(Cc2ccc(OC(F)(F)F)cc2)S(=O)(=O)c2ccc(C(=O)O)cc2)c(C)c2ccccc12 [Example 97, 4-({(4-methyl-1-propylisoquinolin-3-yl)[4-(trifluoromethoxy)benzyl]amino}sulfonyl)benzoic acid]
29 nM	Cc1c(N(Cc2ccc(OC(F)(F)F)cc2)S(=O)(=O)c2ccc(C(=O)O)cc2)nc(N2CCCC2)c2ccccc12 [Example 99, 4-({(4-methyl-1-pyrrolidin-1-ylisoquinolin-3-yl)[4-(trifluoromethoxy)benzyl]amino}sulfonyl)benzoic acid]
21 nM	Cc1c(N(Cc2ccc(OC(F)(F)F)cc2)S(=O)(=O)c2ccc(C(=O)O)cc2)nc(OC(C)C)c2ccccc12 [Example 100, 4-({(1-isopropoxy-4-methylisoquinolin-3-yl)[4-(trifluoromethoxy)benzyl]amino}sulfonyl)benzoic acid]
115 nM	O=C(O)c1ccc(S(=O)(=O)N(Cc2ccc(OC(F)(F)F)cc2)c2cc3c(Cl)cccc3cn2)cc1 [Example 102, 4-({(5-chloroisoquinolin-3-yl)[4-(trifluoromethoxy)benzyl]amino}sulfonyl)benzoic acid]
0.9 nM	O=C(O)c1ccc(S(=O)(=O)N(Cc2ccc(OC(F)(F)F)cc2)c2ncc3ccccc3c2C2CC2)cc1 [Example 104, 4-({(4-cyclopropylisoquinolin-3-yl)[4-(trifluoromethoxy)benzyl]amino}sulfonyl)benzoic acid]
21 nM	Cc1c(N(Cc2ccc(OC(F)(F)F)cc2)S(=O)(=O)c2ccc(C(=O)O)cc2)nc(C(F)(F)F)c2ccccc12 [Example 108, 4-({[4-methyl-1-(trifluoromethyl)isoquinolin-3-yl][4-(trifluoromethoxy)benzyl]amino}sulfonyl)benzoic acid]
7.4 nM	CC(C)c1nc(N(Cc2ccc(OC(F)(F)F)cc2)S(=O)(=O)c2ccc(C(=O)O)cc2)c(C(F)(F)F)c2ccccc12 [Example 110, 4-({[1-isopropyl-4-(trifluoromethyl)isoquinolin-3-yl][4-(trifluoromethoxy)benzyl]amino}sulfonyl)benzoic acid]
14 nM	CC(=O)c1c(N(Cc2ccc(OC(F)(F)F)cc2)S(=O)(=O)c2ccc(C(=O)O)cc2)ncc2ccccc12 [Example 112, 4-({(4-acetylisoquinolin-3-yl)[4-(trifluoromethoxy)benzyl]amino}sulfonyl)benzoic acid]
25 nM	CC(O)c1c(N(Cc2ccc(OC(F)(F)F)cc2)S(=O)(=O)c2ccc(C(=O)O)cc2)ncc2ccccc12 (stereo not shown) [Example 113, 4-({[4-(1-hydroxyethyl)isoquinolin-3-yl][4-(trifluoromethoxy)benzyl]amino}sulfonyl)benzoic acid]
97 nM	Cc1c(N(Cc2ccc(OC(F)(F)F)cc2)S(=O)(=O)c2ccc(C(=O)O)cc2)nc(C(C)O)c2ccccc12 (stereo not shown) [Example 115, 4-({[1-(1-hydroxyethyl)-4-methylisoquinolin-3-yl][4-(trifluoromethoxy)benzyl]amino}sulfonyl)benzoic acid]
54 nM	Cc1c(N(Cc2ccc3cc[nH]c3c2)S(=O)(=O)c2ccc(C(=O)O)cc2)ncc2ccccc12 [Example 117, 4-{[(1H-indol-6-ylmethyl)(4-methylisoquinolin-3-yl)amino]sulfonyl}benzoic acid]
92 nM	Cc1c(N(Cc2ccc3ccn(C)c3c2)S(=O)(=O)c2ccc(C(=O)O)cc2)ncc2ccccc12 [Example 119, 4-{[[(1-methyl-1H-indol-6-yl)methyl](4-methylisoquinolin-3-yl)amino]sulfonyl}benzoic acid]
15 nM	Cc1c(N(Cc2ccc3c(Cl)c[nH]c3c2)S(=O)(=O)c2ccc(C(=O)O)cc2)ncc2ccccc12 [Example 121, 4-{[[(3-chloro-1H-indol-6-yl)methyl](4-methylisoquinolin-3-yl)amino]sulfonyl}benzoic acid]
57 nM	Cc1c(N(Cc2ccc3c(Cl)cn(C)c3c2)S(=O)(=O)c2ccc(C(=O)O)cc2)ncc2ccccc12 [Example 122, 4-{[[(3-chloro-1-methyl-1H-indol-6-yl)methyl](4-methylisoquinolin-3-yl)amino]sulfonyl}benzoic acid]
21 nM	Cc1c(N(Cc2ccc(OC(F)(F)F)cc2)S(=O)(=O)c2ccc(C(N)=O)cc2)ncc2ccccc12 [Example 123, 4-({(4-methylisoquinolin-3-yl)[4-(trifluoromethoxy)benzyl]amino}sulfonyl)benzamide]
13 nM	CONC(=O)c1ccc(S(=O)(=O)N(Cc2ccc(OC(F)(F)F)cc2)c2ncc3ccccc3c2C)cc1 [Example 124, N-methoxy-4-({(4-methylisoquinolin-3-yl)[4-(trifluoromethoxy)benzyl]amino}sulfonyl)benzamide]
62 nM	Cc1c(N(Cc2ccc(OC(F)(F)F)cc2)S(=O)(=O)c2ccc(C(C)(C)O)cc2)ncc2ccccc12 [Example 125, 4-(1-hydroxy-1-methylethyl)-N-(4-methylisoquinolin-3-yl)-N-[4-(trifluoromethoxy)benzyl]benzenesulfonamide]
195 nM	Cc1c(N(Cc2nc3ccccc3o2)S(=O)(=O)c2ccc(C(=O)O)cc2)ncc2ccccc12 [Example 127]

The remaining lines, values behind:

SMILES	IC50
Cn1ccc2c(Cl)cnc(N(Cc3ccc(OC(F)(F)F)cc3)S(=O)(=O)c3ccc(C(=O)O)cc3)c21 [Example 6, sodium 4-({(4-chloro-1-methyl-1H-pyrrolo[2,3-c]pyridin-7-yl)[4-(trifluoromethoxy)benzyl]amino}sulfonyl)benzoate]	22 nM
Cc1c(N(Cc2ccc(-c3ccc(F)cc3)cc2)S(=O)(=O)c2ccc(C(=O)O)cc2)ncc2ccccc12 [Example 8, 4-{[[(4′-fluorobiphenyl-4-yl)methyl](4-methylisoquinolin-3-yl)amino]sulfonyl}benzoic acid]	26 nM
CCOC(C)(c1ccc(CN(c2ncc3ccccc3c2C)S(=O)(=O)c2ccc(C(=O)O)cc2)cc1)C(F)(F)F (stereo not shown) [Example 14, 4-{[[4-(1-ethoxy-2,2,2-trifluoro-1-methylethyl)benzyl](4-methylisoquinolin-3-yl)amino]sulfonyl}benzoic acid]	4.7 nM
Cc1cc2ccccc2nc1N(Cc1ccc(OC(F)(F)F)cc1)S(=O)(=O)c1ccc(C(=O)O)cc1 [Example 17]	5 nM
Cc1cc2ccccc2nc1N(Cc1ccc(F)c(C(F)(F)F)c1)S(=O)(=O)c1ccc(C(=O)O)cc1 [Example 20]	12 nM
Cc1c(N(Cc2ccc(C(C)(C)C)cc2)S(=O)(=O)c2ccc(C(=O)O)cc2)ncc2ccccc12 [Example 23]	1.8 nM
Cc1c(N(Cc2ccc(CC3CC3)cc2)S(=O)(=O)c2ccc(C(=O)O)cc2)ncc2ccccc12 [Example 24]	4.6 nM
Cc1c(N(Cc2ccc(-c3ccccc3)cc2)S(=O)(=O)c2ccc(C(=O)O)cc2)ncc2ccccc12 [Example 27]	26 nM
Cc1c(N(Cc2ccc(Oc3ccccc3)cc2)S(=O)(=O)c2ccc(C(=O)O)cc2)ncc2ccccc12 [Example 28]	16 nM
Cc1c(N(Cc2cccc3ccccc23)S(=O)(=O)c2ccc(C(=O)O)cc2)ncc2ccccc12 [Example 31]	65 nM
Cc1c(N(Cc2ccc3ccccc3c2)S(=O)(=O)c2ccc(C(=O)O)cc2)ncc2ccccc12 [Example 32]	8.6 nM
Cc1c(N(Cc2ccc(C3CC3)cc2)S(=O)(=O)c2ccc(C(=O)O)cc2)ncc2ccccc12 [Example 41]	12 nM
Cc1c(N(Cc2ccc(OC3CC3)cc2)S(=O)(=O)c2ccc(C(=O)O)cc2)ncc2ccccc12 [Example 45]	35 nM
Cc1c(N(Cc2ccc(OC3CCCC3)cc2)S(=O)(=O)c2ccc(C(=O)O)cc2)ncc2ccccc12 [Example 46]	17 nM
Cc1c(N(Cc2ccc3c(c2)CCCC3)S(=O)(=O)c2ccc(C(=O)O)cc2)ncc2ccccc12 [Example 56]	4.7 nM
Cc1c(N(Cc2ccc3c(c2)CCC3)S(=O)(=O)c2ccc(C(=O)O)cc2)ncc2ccccc12 [Example 60]	8.1 nM
Cc1c(N(Cc2ccc3c(c2)CCC3(C)C)S(=O)(=O)c2ccc(C(=O)O)cc2)ncc2ccccc12 [Example 61]	1.3 nM
Cc1c(N(Cc2ccc3c(c2)CC(C)(C)C3)S(=O)(=O)c2ccc(C(=O)O)cc2)ncc2ccccc12 [Example 62]	8.3 nM
Cc1c(N(Cc2ccc(C(F)(F)F)cn2)S(=O)(=O)c2ccc(C(=O)O)cc2)ncc2ccccc12 [Example 66]	38 nM
Cc1c(N(Cc2ccc(-c3ccccc3)cn2)S(=O)(=O)c2ccc(C(=O)O)cc2)ncc2ccccc12 [Example 67]	67 nM
Cc1c(N(Cc2ccc(-c3ccccc3)nc2)S(=O)(=O)c2ccc(C(=O)O)cc2)ncc2ccccc12 [Example 70]	95 nM
Cc1c(N(Cc2ccc3c(c2)CC(C)(C)O3)S(=O)(=O)c2ccc(C(=O)O)cc2)ncc2ccccc12 [Example 80]	18 nM
Cc1c(N(Cc2ccc3c(c2)OC(C)(C)C3)S(=O)(=O)c2ccc(C(=O)O)cc2)ncc2ccccc12 [Example 81]	58 nM
Cc1c(N(Cc2ccc3c(c2)COC3(C)C)S(=O)(=O)c2ccc(C(=O)O)cc2)ncc2ccccc12 [Example 83]	10 nM
Cc1c(N(CC2CCN(c3ccccc3)CC2)S(=O)(=O)c2ccc(C(=O)O)cc2)ncc2ccccc12 [Example 85]	79 nM
Cc1c(N(Cc2ccc(-c3ccccc3F)cc2)S(=O)(=O)c2ccc(C(=O)O)cc2)ncc2ccccc12 [Example 88]	10 nM
Cc1c(N(Cc2ccc(-c3cccc(F)c3)cc2)S(=O)(=O)c2ccc(C(=O)O)cc2)ncc2ccccc12 [Example 89]	15 nM
COC(C)(c1ccc(CN(c2ncc3ccccc3c2C)S(=O)(=O)c2ccc(C(=O)O)cc2)cc1)C(F)(F)F (stereo not shown) [Example 96]	4.7 nM
